row,SMILES,melting point
1,CCn1c(Br)c(Br)c(C#N)c1Br,108 to 110 °C
2,CCOCc1nc2c(N)nc3cc(OCc4ccccc4)ccc3c2n1CC1COC(C)(C)O1 (centres undefined),186 to 187 °C
3,CN(C)C1(c2ccccc2)CCC2(CC1)NCCc1c2[nH]c2ccccc12 (centres undefined),214 to 218 °C
4,Cc1ccc(F)c(OCCCC(=O)O)c1,62 to 64 °C
5,CCOC(=O)c1cc2cccc(NS(=O)(=O)c3ccc(Cl)s3)c2[nH]1,180 to 181 °C
6,Cc1cc(Nc2ccc(C(C)(C)C)cc2)c2[nH]ncc2n1,258 to 262 °C
7,CC(COc1ccc(/C=C/C(=O)O)cc1)N(C)C (centres undefined),231 °C
8,Nn1cnc2c(Br)csc2c1=O,181 to 183 °C
9,CC(C)(C)OCC1CNC(=O)O1 (centres undefined),57 to 65 °C
10,CCC(=O)c1cc(SC)cc(CNC(=O)CCl)c1O,202 to 204 °C
11,O=[N+]([O-])c1ccccc1C1=NCC(=S)Nc2sccc21,207 to 209 °C
12,CC(=O)NCCCn1nnnc1S,152 to 154 °C
13,O=c1[nH]c(=Cc2ccccc2[N+](=O)[O-])c(=O)[nH]c1=Cc1ccc(OCc2ccccc2)cn1,295 to 296 °C
14,CCOC(=O)c1ccc2c(c1)Cc1ccc(C(=O)OCC)cc1O2,156 to 158 °C
15,CNc1cn(-c2cncc(F)c2)nc1Cl,118 to 119 °C
16,CC(=O)Nc1ccc([N+](=O)[O-])c(Cl)c1,134 to 136 °C
17,O=C(CNc1ccccc1)OC1CCCCC1,50 °C
18,Cc1cc(C)cc(-c2cnn3c(-c4cccc(-c5nnn(Cc6cccnc6)n5)c4)ccnc23)c1,73 °C
19,Cc1c(Cl)nn(C(C)(C)C(=O)N(C)C)c1-c1ccccc1,134 to 136 °C
20,O=C1CC(c2cccc(-n3ccnc3)c2)=Nc2cc(N3CCC4(CC3)OCCO4)c(-c3ccccc3F)cc2N1,225 °C
21,Ic1ccc(OC23CC4CC(CC(C4)C2)C3)cc1,115 to 118 °C

row,SMILES,melting point
1,OCCOc1ccc(C2CNCCN2)cc1 (racemic),141 °C
2,COc1ccc(C=C(C#N)C#N)c2c1OC(C)(C)C2,198 to 200 °C
3,COC(=O)c1ccc(C(F)(F)F)[nH]c1=O,63 to 64 °C
4,COC(=O)C(=CC1C(C(=O)O)C1(C)C)OC (centres undefined),78 °C
5,O=[N+]([O-])c1cnn2c(-c3ccc(C(F)(F)F)cc3)ccnc12,191 to 193 °C
6,CC(=NN(C)c1ccc(C(F)(F)F)cc1)C(=O)NCc1ccc(Cl)nc1,141 to 142 °C
7,CCCc1c(OCCCCCCc2cccc(OCCCC(=O)O)c2CCC(=O)O)ccc2c1OCCC2=O,116 to 118 °C
8,C[C@H]1C(=O)CCN1c1ccc(C#N)c2ccccc12,113 to 114 °C
9,Nc1ccc(I)cc1CO,125 °C
10,CCCCc1nc2c(N)nc3ccccc3c2n1CCN,196 to 199 °C
11,CC(=O)c1c(Cl)nc2n(c1=O)CCS2,135 to 136 °C
12,O=C(O)c1cnc2n(c1=O)CCCC2=NNc1ccccc1,267 to 268 °C
13,CC(=O)N[C@H](CO)C(=O)NCc1ccc(N=[N+]=[N-])cc1,161 to 163 °C
14,N#Cc1ccc(-c2cn(-c3ccc(OCC(F)(F)F)cc3)cn2)cc1,179 °C
15,COc1cc2[nH]c(C(=O)O)cc2c(C)c1C,208 °C
16,O=[N+]([O-])c1cnccc1N1CCc2ccccc21,159 to 160 °C
17,c1ccc2c(c1)cnc1nnnn12,150 °C
18,CSC(=S)N1CCN(Cc2cc(OC(C)=O)ccc2O)CC1,124 °C
19,CCOC(=O)c1cn(Cc2cccnc2)nc1O,148 to 149 °C
20,CC(=O)Oc1ccc(C=Cc2ccc3ccccc3n2)cc1,127 to 128 °C
21,COc1ccc(C=Cc2ccc(C)cc2)c(Cl)c1,144 to 145 °C

# Results, then the compound that gave them:
row,melting point,SMILES
1,290 °C,O=C(O)c1cnc2cc(F)c(F)cc2c1
2,102 °C,CCCCCCCCCCCCCCCCC(=O)n1cc(F)c(=O)[nH]c1=O
3,88 to 92 °C,CCCc1c(C#CCCCCOc2ccccc2CCC(=O)O)ccc2c1OCCC2=O
4,210 to 211 °C,CC(C)C(C(=O)O[C@H]1C[C@H](O)C=C2C=C[C@H](C)[C@H](CC[C@@H]3C[C@@H](O)CC(=O)O3)[C@H]21)C(C)C
5,270 °C,O=C(Nc1cc(S(=O)(=O)N2CCC(O)C2)sc1Cl)c1cnn2c(C(F)(F)F)cc(-c3ccc(C(F)(F)F)cc3)nc12 (racemic)
6,193 to 194 °C,Cc1cnc2c(C#N)cnn2c1
7,128 to 129 °C,CC(C)(C)OC(=O)C(C)(C)N1COC(CCl)=C(c2ccccc2)C1=O
8,128 to 131 °C,CSC(Nc1cc(Cl)cc(Cl)c1)=C(C#N)S(=O)(=O)c1ccc(Cl)cc1
9,125 to 127 °C,CC(ON1C(C)(C)CNC(=O)CC1(C)C)c1ccccc1 (centres undefined)
10,175 to 184 °C,CC(=O)SCC(C(=O)NC(Cc1ccc(O)c(O)c1)C(=O)O)C(F)(F)F (centres undefined)
11,105 to 107 °C,CC(C)(C)c1cc(C#N)c(O)c(Br)c1Cl
12,186 to 189 °C,CS(=O)(=O)c1ccc(-c2nn3cc(C(F)(F)F)oc3c2-c2ccc(F)cc2)cc1
13,123 to 135 °C,Cc1cccc(-c2[nH]c(C(C)C)nc2-c2cccc(-c3ccc(NC(=O)C(C)(C)O)cc3)c2)n1
14,155 °C,CC(C)(Oc1cccc2ccccc12)C(=O)Nc1ccc(C(=O)O)cc1
15,165 to 167 °C,O=C(Nc1ccc(-n2nc(C(F)(F)F)cc2C(F)(F)F)cc1)c1c(F)cccc1Cl
16,133 to 134 °C,Cc1n[nH]c(C)c1Cc1cc(Cl)cc(Cl)c1
17,182 to 183 °C,O=C(O)[C@@H]1CC[C@@H](Oc2ccccc2)c2c(-c3ccc(Cl)cc3)noc2C1 (relative stereo)
18,255 °C,C1=Nc2c(cnn2-c2ccccc2)C2=N[C@@H](Cc3ccccc3)CN12
19,217 to 219 °C,COc1cc(CC(=O)O)c(C(=O)O)cc1OC
20,146 to 148 °C,CC(C)c1ccc(COc2ccc(CC(=O)O)cc2Cl)cc1
21,109 to 111 °C,O=C(Nc1ccccc1CS(=O)c1nccn1-c1ccccn1)c1ccccc1 (centres undefined)

row,melting point,SMILES
1,148 to 149 °C,CCOC(=O)C(C#N)=C1CC(C)(C)c2cc(OC)c(OC)cc21
2,50 to 52 °C,Ic1ccc(OC2CCCC2)cc1
3,173 to 174 °C,CCCCOCCOc1ccc(-c2ccc3c(c2)C=C(C(=O)Nc2ccc(C(O)c4ccccn4)cc2)CCS3(=O)=O)cc1 (centres undefined)
4,195 °C,Oc1ccc(-c2cc3cc(O)ccc3o2)c(Br)c1
5,75 °C,Cc1cc(Oc2ccc(C(F)(F)F)cc2Cl)cc(Cl)n1
6,175 to 177 °C,Cc1ccc(S(=O)(=O)N(C)c2ccc(Cl)cc2C(=O)O)cc1
7,135 to 137 °C,O=[N+]([O-])c1cc(Cl)cc2c1OCCO2
8,158 °C,COC(=O)c1ccc(Cl)c(CN2CCSC2=NC#N)c1Cl
9,161 to 163 °C,COCOCc1nc2nccnc2c(=O)[nH]1
10,305 to 306 °C,O=C(O)Cn1c(=O)c(=O)[nH]c2ccc([N+](=O)[O-])cc21
11,> 250 °C,Cn1nc(-c2nc(C(N)=O)c(N)nc2-c2ccccc2)ccc1=O
12,159 to 162 °C,CCC(C)=NNC(=O)c1cccc2nnsc12
13,76 to 77 °C,CNCC(O)c1cc(C)oc1C (centres undefined)
14,231 to 233 °C,O=[N+]([O-])c1ccc(CN2CCCCc3ncccc32)cc1
15,205 to 207 °C,CC(=O)Nc1c(C(=O)c2nccn2C)[nH]c2cc(Cl)ccc12
16,65 to 67 °C,CCOC(=O)C1CC2CCC(=O)N2C1=O (centres undefined)
17,217 to 219 °C,COc1ccnc(CCc2nc3cc(-c4ccc(S(=O)(=O)N5CCN(c6ccc(C#N)cc6)CC5)cc4)cnc3[nH]2)c1
18,100 °C,N#Cc1ccccc1C(=O)c1ccccc1O
19,> 300 °C,CCn1cc(C(=O)O)c(=O)c2cc(F)c(N3Cc4ccccc4C3)cc21
20,161 to 162 °C,CC(C)C(=O)c1cn(Cc2c(F)cccc2F)c2sc(-c3ccc(NC(=O)C(C)CO)cc3)c(CN(C)Cc3ccccc3)c2c1=O (centres undefined)
21,191 °C,CS(=O)(=O)c1c(Cl)c2cccnc2n(Cc2ccccc2)c1=O

row,melting point,SMILES
1,131 to 133 °C,N#CCc1cccc2oc(Br)c(-c3ccccc3)c12
2,172 to 175 °C,Cc1ccc2cccc(OCc3c(Cl)ccc(S(=O)(=O)N(CCCCN(C(=O)OC(C)(C)C)C(=O)OC(C)(C)C)C(C)(C)C)c3Cl)c2n1
3,70 to 72 °C,CCCCCCCCCCCCC(Oc1ccc2c(c1)OCO2)C(=O)O (centres undefined)
4,91 to 92 °C,CCCCCCCCC(SCCCCCC)C(=O)Nc1c(SC)ccc2ncccc12 (centres undefined)
5,242 to 243 °C,CCOC(=O)c1cnn(C)c1C(=O)Nc1ccn2nc(-c3ccccc3)nc2c1
6,180 to 182 °C,Oc1cc2onc(-c3ccccc3F)c2cc1Cl
7,235 to 239 °C,O=C(Nc1cccc2c(CO)ccnc12)c1c(Cl)cccc1Cl
8,109 to 110 °C,CCC(CC)NC(=O)c1ccc(-c2scc(-c3ccccc3Cl)c2CC(=O)NC(=N)NCCCO)cc1
9,89 to 90 °C,CN(C)CCNC(=O)c1cccc([N+](=O)[O-])c1
10,162 °C,COc1ccc(-c2nc3ccc(C=Cc4ccc5nc(-c6ccc(OC)cc6)oc5c4)cc3o2)cc1
11,> 280 °C,CCCCCCCCN1C=C(C)C(=c2c(C)cc(=CC=C3C=C(C(C)(C)C)C(=O)C(C(C)(C)C)=C3)cc2C)C(C)=C1
12,144 to 146 °C,CNc1cc(NC)cc(C(=O)CS(C)(=O)=O)c1
13,102 °C,CCCCc1c(C(=O)c2ccc(OC)cc2)n(C)c2ccc([N+](=O)[O-])cc12
14,124 to 126 °C,CCCCc1nc2c(N)nc3ccccc3c2n1CCN1C(=O)NC2CSC(CCCCC(N)=O)C21 (centres undefined)
15,216 to 222 °C,CSc1c(C(=O)NN=Cc2nccs2)[nH]c2ccccc12
16,222 to 224 °C,CN1C(=O)C2c3c([nH]c4ncccc34)-c3nccn3C2C1=O (centres undefined)
17,178 to 179 °C,COc1ccc(Cn2ncn(-c3ccc(N4CCN([C@H](C)[C@](O)(Cn5cncn5)c5ccc(F)cc5F)CC4)cc3)c2=O)cc1
18,312 to 314 °C,O=C(Nc1ccc(-c2ccc(-c3ccc(NC(=O)c4ccccc4)cc3)o2)cc1)c1ccccc1
19,230 to 232 °C,NC(=O)NCc1cccc(-c2csc(N=C(N)N)n2)c1
20,154 to 156 °C,COc1ccc(Cc2nc3n(c2Cc2ccc(OC)cc2)CCS3)cc1
